Test results: patent US11180462B2, “Microbiocidal oxadiazole derivatives” (SYNGENTA PARTICIPATIONS AG, priority 2015, dated 2021)

Experiments:
[1] = tested on: Puccinia recondita f. Sp. Tritici; assay: Fungicidal activity against Puccinia recondita f. sp. tritici / wheat / leaf disc curative (brown rust); assay type: in vivo; settings: foliar, 24 h, 200 ppm in the applied formulation, wheat leaf segments, curative (applied 1 day after inoculation), compared to untreated control leaf disks, read-out: disease control
Method in brief: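 Inoculate cv. Kanzler segments on agar; hold dark, 19° C, 75% RH. Spray diluted formulated compound at day 1. Incubate 12 h light/12 h dark, same temperature and humidity; score % control vs untreated 6–8 days later.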

[2] = tested on: Puccinia recondita f. Sp. Tritici; assay: Fungicidal activity against Puccinia recondita f. sp. tritici / wheat / leaf disc preventative (brown rust); assay type: in vivo; settings: foliar, 200 ppm in the applied formulation, wheat leaf segments, preventative, compared to untreated control leaf disks, read-out: disease control
Method in brief: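 Compound application precedes infection: segments of wheat cv. Kanzler, sprayed at 200 ppm, are inoculated with a spore suspension after 1 day. Incubation is at 19° C. with 75% relative humidity and 12 h light/12 h darkness, and control versus untreated leaves is rated 7 to 9 days post-application.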

[3] = tested on: Glomerella lagenarium (Colletotrichum lagenarium); assay: Fungicidal activity against Glomerella lagenarium (Colletotrichum lagenarium) liquid culture / cucumber / preventative (anthracnose); assay type: cell-based; settings: Colletotrichum orbiculare; 20 ppm in the applied formulation; liquid culture (PDB), growth inhibition measured photometrically after 3 to 4 days; compared to untreated control; read-out: disease control
Method in brief: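 Photometric read-out of fungal growth after 2–7 days, expressed as percent antifungal activity versus untreated check. Cryo-stored conidia in PDB; compound at 20 ppm; dark, 24 °C, 96% RH.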

Phakopsora Pachyrhizi = assay: Fungicidal activity against Phakopsora pachyrhizi / soybean / leaf disc preventative (Asian soybean rust); assay type: in vivo; settings: foliar, 200 ppm in the applied formulation, soybean leaf disks, compared to untreated control leaf disks, read-out: disease control
Method in brief: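 Preventative soybean leaf-disc test: discs on water agar sprayed with diluted formulated compound, inoculated one day later with spores on the lower surface. Held 24–36 h dark at 20°C, 75% rh, then 12 h light/day; percent disease control versus untreated discs scored 12–14 days after application.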

CON(Cc1ccc(-c2noc(C(F)(F)F)n2)cc1)C(=O)CC(C)C [Compound 1.34, N-methoxy-3-methyl-N-[[4-[5-(trifluoromethyl)-1,2,4-oxadiazol-3-yl]phenyl]methyl]-butanamide]
≥ 80%: pest or weed control at 200 ppm [1] | pest or weed control at 200 ppm [2] | inhibition of growth at 20 ppm [3] | pest or weed control at 200 ppm (Phakopsora Pachyrhizi)

CCCN(Cc1ccc(-c2noc(C(F)(F)F)n2)cc1)C(=O)C1CCOC1 (centres unmarked) [Compound 1.654, N-propyl-N-[[4-[5-(trifluoromethyl)-1,2,4-oxadiazol-3-yl]phenyl]methyl]-tetrahydrofuran-3-carboxamide]
≥ 80%: pest or weed control at 200 ppm [1] | pest or weed control at 200 ppm [2] | inhibition of growth at 20 ppm [3] | pest or weed control at 200 ppm (Phakopsora Pachyrhizi)

CON(Cc1ccc(-c2noc(C(F)(F)F)n2)cc1)C(=O)C(C)(C)O [Compound 1.784, 2-hydroxy-N-methoxy-2-methyl-N-[[4-[5-(trifluoromethyl)-1,2,4-oxadiazol-3-yl]phenyl]methyl]-propanamide]
≥ 80%: pest or weed control at 200 ppm [1] | pest or weed control at 200 ppm [2] | inhibition of growth at 20 ppm [3] | pest or weed control at 200 ppm (Phakopsora Pachyrhizi)

CON(Cc1c(F)cc(-c2noc(C(F)(F)F)n2)cc1F)C(=O)C1CC1 [Compound 1.596, N-[[2,6-difluoro-4-[5-(trifluoromethyl)-1,2,4-oxadiazol-3-yl]phenyl]methyl]-N-methoxy-cyclopropane-carboxamide]
≥ 80%: pest or weed control at 200 ppm [1] | pest or weed control at 200 ppm [2] | inhibition of growth at 20 ppm [3] | pest or weed control at 200 ppm (Phakopsora Pachyrhizi)

CCCN(Cc1ccc(-c2noc(C(F)(F)F)n2)cc1)C(C)=O [Compound 1.668, N-propyl-N-[[4-[5-(trifluoromethyl)-1,2,4-oxadiazol-3-yl]phenyl]methyl]-acetamide]
≥ 80%: pest or weed control at 200 ppm [1] | pest or weed control at 200 ppm [2] | inhibition of growth at 20 ppm [3] | pest or weed control at 200 ppm (Phakopsora Pachyrhizi)

COC(C)C(=O)N(Cc1ccc(-c2noc(C(F)(F)F)n2)c(F)c1)OC (centres unmarked) [Compound 1.783, N-[[3-fluoro-4-[5-(trifluoromethyl)-1,2,4-oxadiazol-3-yl]phenyl]methyl]-N,2-dimethoxy-propanamide]
≥ 80%: pest or weed control at 200 ppm [1] | pest or weed control at 200 ppm [2] | inhibition of growth at 20 ppm [3] | pest or weed control at 200 ppm (Phakopsora Pachyrhizi)

CON(Cc1ccc(-c2noc(C(F)(F)F)n2)cc1)C(=O)CO [Compound 1.778, 2-hydroxy-N-methoxy-N-[[4-[5-(trifluoromethyl)-1,2,4-oxadiazol-3-yl]phenyl]methyl]-acetamide]
≥ 80%: pest or weed control at 200 ppm [1] | pest or weed control at 200 ppm [2] | inhibition of growth at 20 ppm [3] | pest or weed control at 200 ppm (Phakopsora Pachyrhizi)

COCCN(Cc1ccc(-c2noc(C(F)(F)F)n2)cc1)C(=O)C1CC1 [Compound 1.363, N-(2-methoxyethyl)-N-[[4-[5-(trifluoromethyl)-1,2,4-oxadiazol-3-yl]phenyl]methyl]-cyclopropane-carboxamide]
≥ 80%: pest or weed control at 200 ppm [1] | pest or weed control at 200 ppm [2] | inhibition of growth at 20 ppm [3] | pest or weed control at 200 ppm (Phakopsora Pachyrhizi)

CCCN(Cc1ccc(-c2noc(C(F)(F)F)n2)cc1)C(=O)C(C)CC (centres unmarked) [Compound 1.659, 2-methyl-N-propyl-N-[[4-[5-(trifluoromethyl)-1,2,4-oxadiazol-3-yl]phenyl]methyl]-butanamide]
≥ 80%: pest or weed control at 200 ppm [1] | pest or weed control at 200 ppm [2] | inhibition of growth at 20 ppm [3] | pest or weed control at 200 ppm (Phakopsora Pachyrhizi)

COCC(=O)N(Cc1ccc(-c2noc(C(F)(F)F)n2)cc1)C1CC1 [Compound 1.777, N-cyclopropyl-2-methoxy-N-[[4-[5-(trifluoromethyl)-1,2,4-oxadiazol-3-yl]phenyl]methyl]-acetamide]
≥ 80%: pest or weed control at 200 ppm [1] | pest or weed control at 200 ppm [2] | inhibition of growth at 20 ppm [3] | pest or weed control at 200 ppm (Phakopsora Pachyrhizi)

CCON(Cc1ccc(-c2noc(C(F)(F)F)n2)cc1)C(=O)C(C)C [Compound 1.614, N-ethoxy-2-methyl-N-[[4-[5-(trifluoromethyl)-1,2,4-oxadiazol-3-yl]phenyl]methyl]-propanamide]
≥ 80%: pest or weed control at 200 ppm [1] | pest or weed control at 200 ppm [2] | inhibition of growth at 20 ppm [3] | pest or weed control at 200 ppm (Phakopsora Pachyrhizi)

CC(=O)N(Cc1ccc(-c2noc(C(F)(F)F)n2)cc1)C(C)C [Compound 1.687, N-isopropyl-N-[[4-[5-(trifluoromethyl)-1,2,4-oxadiazol-3-yl]phenyl]methyl]-acetamide]
≥ 80%: pest or weed control at 200 ppm [1] | pest or weed control at 200 ppm [2] | inhibition of growth at 20 ppm [3] | pest or weed control at 200 ppm (Phakopsora Pachyrhizi)

COCCN(Cc1ccc(-c2noc(C(F)(F)F)n2)cc1)C(=O)CC(F)(F)F [Compound 1.361, 3,3,3-trifluoro-N-(2-methoxyethyl)-N-[[4-[5-(trifluoromethyl)-1,2,4-oxadiazol-3-yl]phenyl]methyl]-propanamide]
≥ 80%: pest or weed control at 200 ppm [1] | pest or weed control at 200 ppm [2] | inhibition of growth at 20 ppm [3] | pest or weed control at 200 ppm (Phakopsora Pachyrhizi)

CCC(C)N(Cc1ccc(-c2noc(C(F)(F)F)n2)cc1)C(=O)COC (centres unmarked) [Compound 1.372, 2-methoxy-N-sec-bulyl-N-[[4-[5-(trifluoromethyl)-1,2,4-oxadiazol-3-yl]phenyl]methyl]-acetamide]
≥ 80%: pest or weed control at 200 ppm [1] | pest or weed control at 200 ppm [2] | inhibition of growth at 20 ppm [3] | pest or weed control at 200 ppm (Phakopsora Pachyrhizi)

CON(Cc1ccc(-c2noc(C(F)(F)F)n2)cc1)C(=O)C(C)C [Compound 1.12, N-methoxy-2-methyl-N-[[4-[5-(trifluoromethyl)-1,2,4-oxadiazol-3-yl]phenyl]methyl]-propanamide]
≥ 80%: pest or weed control at 200 ppm [1] | pest or weed control at 200 ppm [2] | inhibition of growth at 20 ppm [3] | pest or weed control at 200 ppm (Phakopsora Pachyrhizi)

CCCC(=O)N(Cc1ccc(-c2noc(C(F)(F)F)n2)cc1)C1CC1 [Compound 1.97, N-cyclopropyl-N-[[4-[5-(trifluoromethyl)-1,2,4-oxadiazol-3-yl]phenyl]methyl]-butanamide]
≥ 80%: pest or weed control at 200 ppm [1] | pest or weed control at 200 ppm [2] | inhibition of growth at 20 ppm [3] | pest or weed control at 200 ppm (Phakopsora Pachyrhizi)

C=CCCC(=O)N(Cc1ccc(-c2noc(C(F)(F)F)n2)cc1)OC [Compound 1.17, N-methoxy-N-[[4-[5-(trifluoromethyl)-1,2,4-oxadiazol-3-yl]phenyl]methyl]-pent-4-enamide]
≥ 80%: pest or weed control at 200 ppm [1] | pest or weed control at 200 ppm [2] | inhibition of growth at 20 ppm [3] | pest or weed control at 200 ppm (Phakopsora Pachyrhizi)

CCN(Cc1ccc(-c2noc(C(F)(F)F)n2)cc1)C(=O)C1CC1 [Compound 1.514, N-ethyl-N-[[4-[5-(trifluoromethyl)-1,2,4-oxadiazol-3-yl]phenyl]methyl]-cyclopropane-carboxamide]
≥ 80%: pest or weed control at 200 ppm [1] | pest or weed control at 200 ppm [2] | inhibition of growth at 20 ppm [3] | pest or weed control at 200 ppm (Phakopsora Pachyrhizi)

CCN(Cc1ccc(-c2noc(C(F)(F)F)n2)cc1)C(=O)C1(C)COC1 [Compound 1.508, N-ethyl-3-methyl-N-[[4-[5-(trifluoromethyl)-1,2,4-oxadiazol-3-yl]phenyl]methyl]-oxetane-3-carboxamide]
≥ 80%: pest or weed control at 200 ppm [1] | pest or weed control at 200 ppm [2] | inhibition of growth at 20 ppm [3] | pest or weed control at 200 ppm (Phakopsora Pachyrhizi)

CC(C)N(Cc1ccc(-c2noc(C(F)(F)F)n2)cc1)C(=O)C1CC1 [Compound 1.599, N-isopropyl-N-[[4-[5-(trifluoromethyl)-1,2,4-oxadiazol-3-yl]phenyl]methyl]-cyclopropane-carboxamide]
≥ 80%: pest or weed control at 200 ppm [1] | pest or weed control at 200 ppm [2] | inhibition of growth at 20 ppm [3] | pest or weed control at 200 ppm (Phakopsora Pachyrhizi)

CCC(COC)C(=O)N(CCO)Cc1ccc(-c2noc(C(F)(F)F)n2)cc1 (centres unmarked) [Compound 1.723, N-(2-hydroxyethyl)-2-(methoxymethyl)-N-[[4-[5-(trifluoromethyl)-1,2,4-oxadiazol-3-yl]phenyl]methyl]-butanamide]
≥ 80%: pest or weed control at 200 ppm [1] | pest or weed control at 200 ppm [2] | inhibition of growth at 20 ppm [3] | pest or weed control at 200 ppm (Phakopsora Pachyrhizi)

CCC(C)N(Cc1ccc(-c2noc(C(F)(F)F)n2)cc1)C(C)=O (centres unmarked) [Compound 1.407, N-sec-butyl-N-[[4-[5-(trifluoromethyl)-1,2,4-oxadiazol-3-yl]phenyl]methyl]-acetamide]
≥ 80%: pest or weed control at 200 ppm [1] | pest or weed control at 200 ppm [2] | inhibition of growth at 20 ppm [3] | pest or weed control at 200 ppm (Phakopsora Pachyrhizi)

CC(C)N(Cc1ccc(-c2noc(C(F)(F)F)n2)cc1)C(=O)C1CCCO1 (centres unmarked) [Compound 1.682, N-isopropyl-N-[[4-[5-(trifluoromethyl)-1,2,4-oxadiazol-3-yl]phenyl]methyl]-tetrahydrofuran-2-carboxamide]
≥ 80%: pest or weed control at 200 ppm [1] | pest or weed control at 200 ppm [2] | inhibition of growth at 20 ppm [3] | pest or weed control at 200 ppm (Phakopsora Pachyrhizi)
